{"source": "patent US20230322767A1", "about": "“ARYL SUBSTITUTED PYRROLO-PYRIDINONES AND THERAPEUTIC USES THEREOF” (Bayer Aktiengesellschaft, priority 2020, published 2023)"}
{"target": "wild-type Epidermal Growth Factor Receptor (EGFR) (Homo sapiens (Human), UniProt P00533)", "sequence (P00533 669-1210)": "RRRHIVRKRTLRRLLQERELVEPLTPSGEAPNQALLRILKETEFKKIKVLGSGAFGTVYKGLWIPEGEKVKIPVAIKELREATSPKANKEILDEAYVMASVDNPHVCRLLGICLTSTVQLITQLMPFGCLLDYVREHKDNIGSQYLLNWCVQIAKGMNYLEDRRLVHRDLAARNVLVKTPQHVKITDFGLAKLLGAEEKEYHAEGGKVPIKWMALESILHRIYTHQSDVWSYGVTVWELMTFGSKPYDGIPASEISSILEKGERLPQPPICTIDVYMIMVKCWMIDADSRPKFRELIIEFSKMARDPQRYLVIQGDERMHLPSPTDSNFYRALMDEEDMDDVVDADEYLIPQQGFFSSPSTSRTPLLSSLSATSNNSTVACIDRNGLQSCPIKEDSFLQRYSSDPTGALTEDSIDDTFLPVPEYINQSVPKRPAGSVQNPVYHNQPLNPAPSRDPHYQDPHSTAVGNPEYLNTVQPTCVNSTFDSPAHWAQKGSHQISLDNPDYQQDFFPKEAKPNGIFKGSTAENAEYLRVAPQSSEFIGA", "experiment": "WT-EGFR Kinase Assay (TR-FRET, 2 mM ATP)", "format": "biochemical", "conditions": "EGFR Wildtyp 2 mM ATP IC50 [mol/l] (median), median or individual measurements", "description": "(§1) Inhibitory activity of compounds of the present invention against wild-type Epidermal Growth Factor Receptor (EGFR) was quantified employing the TR-FRET based EGFR assay as described in the following paragraphs.\n(§2) Recombinant fusion protein of N-terminal Glutathion-S-Transferase (GST) and a fragment of human EGFR (amino acids R669 to A1210), expressed in Sf9 insect cells and purified via affinity chromatography using Glutathion Sepharose as described above, was used as kinase. As substrate for the kinase reaction the biotinylated peptide biotin-Ahx-[…] (C-terminus in amide form) was used which can be purchased e.g. form the company Biosynthan GmbH (Berlin-Buch, Germany).\n(§3) For the assay 50 nl of a 100 fold concentrated solution of the test compound in DMSO was pipetted into either a black low volume 384 well microtiter plate or a black 1536 well microtiter plate (both Greiner Bio-One, Frickenhausen, Germany), 2 μL of a solution of EGFR in aqueous assay buffer [50 mM Hepes pH 7.0, 10 mM MgCl2, 1 mM dithiothreitol, 0.5 mM EGTA, 0.3 mM activated sodium ortho-vanadate, 0.005% (w/v) bovine serum albumin, 0.005% (v/v) Tween-20] were added and the mixture was incubated for 15 min at 22° C. to allow pre-binding of the test compounds to the enzyme before the start of the kinase reaction. […] The concentration of EGFR was adjusted depending of the activity of the enzyme lot and was chosen appropriate to have the assay in the linear range, typical concentration was […]. The reaction was stopped by the addition of 3 μL of a solution of HTRF detection reagents (83.3 nM streptavidine-XL665 [Cisbio Bioassays, Codolet, France] and 1.67 nM PT66-Tb-Cryptate, a terbium-cryptate labelled anti-phospho-tyrosine antibody from Cisbio Bioassays [instead of the PT66-Tb-cryptate PT66-Eu-Chelate from Perkin Elmer can also be used]) in an aqueous EDTA-solution (133.3 mM EDTA, 0.2% (w/v) bovine serum albumin in 50 mM HEPES pH 7.5).\n(§4) The resulting mixture was incubated 1 h at 22° C. to allow the binding of the biotinylated phosphorylated peptide to the streptavidine-XL665 and the PT66-Tb-Cryptate. Subsequently the amount of phosphorylated substrate was evaluated by measurement of the resonance energy transfer from the PT66-Tb-Cryptate to the streptavidine-XL665. Therefore, the fluorescence emissions at 620 nm and 665 nm after excitation at 337 nm were measured in a HTRF reader, e.g. a Pherastar (BMG Labtechnologies, Offenburg, Germany) or a Viewlux (Perkin-Elmer). The ratio of the emissions at 665 nm and at 622 nm was taken as the measure for the amount of phosphorylated substrate.", "units": {"IC50": "µM"}}
{"smiles": "O=C(Nc1cc(-c2[nH]c3cc[nH]c(=O)c3c2-c2ccccc2)ccn1)C(CC(F)F)c1ccc(F)cc1", "note": "(racemic) [Example 76, 4,4-difluoro-2-(4-fluorophenyl)-N-[4-(4-oxo-3-phenyl-4,5-dihydro-1H-pyrrolo[3,2-c]pyridin-2-yl)pyridin-2-yl]butanamide]", "IC50": "> 20"}
{"smiles": "Cn1cc(CC(F)(F)F)c2[nH]c(-c3ccnc(NC(=O)C(CC(F)F)c4ccc(F)cc4)c3)c(-c3ccccc3)c2c1=O", "note": "(single isomer, unassigned; (-)) [Example 019, (-)-4,4-difluoro-2-(4-fluorophenyl)-N-{4-[5-methyl-4-oxo-3-phenyl-7-(2,2,2-trifluoroethyl)-4,5-dihydro-1H-pyrrolo[3,2-c]pyridin-2-yl]pyridin-2-yl}butanamide]", "IC50": "> 20"}
{"smiles": "CC(C(=O)Nc1cc(-c2[nH]c3c(CC(F)(F)F)cn(C)c(=O)c3c2-c2ccc(F)cc2)ccn1)c1ccc(F)cc1", "note": "(single isomer, unassigned; (-)) [Example 023, (-)-2-(4-fluorophenyl)-N-{4-[3-(4-fluorophenyl)-5-methyl-4-oxo-7-(2,2,2-trifluoroethyl)-4,5-dihydro-1H-pyrrolo[3,2-c]pyridin-2-yl]pyridin-2-yl}propanamide]", "IC50": "> 20"}
{"smiles": "Cc1cn(C)c(=O)c2c(-c3ccc(F)cc3)c(-c3ccnc(NC(=O)C(C)c4ccc(F)cc4)c3)[nH]c12", "note": "(single isomer, unassigned; (-)) [Example 031, (-)-2-(4-fluorophenyl)-N-{4-[3-(4-fluorophenyl)-5,7-dimethyl-4-oxo-4,5-dihydro-1H-pyrrolo[3,2-c]pyridin-2-yl]pyridin-2-yl}propanamide]", "IC50": "> 20"}
{"smiles": "Cc1cn(C)c(=O)c2c(-c3ccc(F)cc3)c(-c3ccnc(NC(=O)C(CC(F)F)c4ccc(F)cc4)c3)[nH]c12", "note": "(single isomer, unassigned; (-)) [Example 035, (-)-4,4-difluoro-2-(4-fluorophenyl)-N-{4-[3-(4-fluorophenyl)-5,7-dimethyl-4-oxo-4,5-dihydro-1H-pyrrolo[3,2-c]pyridin-2-yl]pyridin-2-yl}butanamide]", "IC50": "> 20"}
{"smiles": "CN1C(=O)c2c([nH]c(-c3ccnc(NC(=O)C(CC(F)F)c4ccc(F)cc4)c3)c2-c2ccccc2)CC12CCC2", "note": "(single isomer, unassigned; (-)) [Example 050, (-)-4,4-difluoro-2-(4-fluorophenyl)-N-[4-(5′-methyl-4′-oxo-3′-phenyl-1′,4′,5′,7′-tetrahydrospiro-[cyclobutane-1,6′-pyrrolo[3,2-c]pyridin]-2′-yl)pyridin-2-yl]butanamide]", "IC50": 11.9}
{"smiles": "CC(C(=O)Nc1cc(-c2[nH]c3c(c2-c2ccccc2)C(=O)N(C)C2(CCC2)C3)ccn1)c1ccc(F)cc1", "note": "(single isomer, unassigned; (-)) [Example 053, (-)-2-(4-fluorophenyl)-N-[4-(5′-methyl-4′-oxo-3′-phenyl-1′,4′,5′,7′-tetrahydrospiro[cyclobutane-1,6′-pyrrolo[3,2-c]pyridin]-2′-yl)pyridin-2-yl]propanamide]", "IC50": "> 20"}
{"target": "wild-type Epidermal Growth Factor Receptor (EGFR) (Homo sapiens (Human), UniProt P00533)", "experiment": "WT-EGFR Kinase Assay (TR-FRET, 2 mM ATP)", "format": "biochemical", "conditions": "read-out: EGFR Wildtyp 2 mM ATP IC50 [mol/l] (median), median or individual measurements", "description": "as §1, §2, §3, §4", "units": {"IC50": "µM"}}
{"smiles": "CN1CCc2[nH]c(-c3ccnc(NC(=O)Cc4ccc(F)cc4)c3)c(-c3cccnc3)c2C1=O", "note": "[Example 012, 2-(4-fluorophenyl)-N-{4-[5-methyl-4-oxo-3-(pyridin-3-yl)-4,5,6,7-tetrahydro-1H-pyrrolo[3,2-c]pyridin-2-yl]pyridin-2-yl}acetamide]", "IC50": "> 20"}
{"smiles": "CC(C(=O)Nc1cc(-c2[nH]c3c(c2-c2ccccc2)C(=O)N(C)CC3CC(F)(F)F)ccn1)c1ccc(F)cc1", "note": "(stereo not shown) [Example 013]", "IC50": "> 20"}
{"smiles": "CN1CC(CC(F)(F)F)c2[nH]c(-c3ccnc(NC(=O)C(CC(F)F)c4ccc(F)cc4)c3)c(-c3ccccc3)c2C1=O", "note": "(stereo not shown) [Example 017]", "IC50": "> 20"}
{"smiles": "CC(C(=O)Nc1cc(-c2[nH]c3c(c2-c2ccc(F)cc2)C(=O)N(C)CC3CC(F)(F)F)ccn1)c1ccc(F)cc1", "note": "(stereo not shown) [Example 021]", "IC50": "> 20"}
{"smiles": "CN1CC(CC(F)(F)F)c2[nH]c(-c3ccnc(NC(=O)C(CC(F)F)c4ccc(F)cc4)c3)c(-c3ccc(F)cc3)c2C1=O", "note": "(stereo not shown) [Example 025]", "IC50": "> 20"}
{"smiles": "CC1CN(C)C(=O)c2c1[nH]c(-c1ccnc(NC(=O)C(C)c3ccc(F)cc3)c1)c2-c1ccc(F)cc1", "note": "(stereo not shown) [Example 029]", "IC50": "> 20"}
{"smiles": "CC1CN(C)C(=O)c2c1[nH]c(-c1ccnc(NC(=O)C(C)c3ccc(F)cc3)c1)c2-c1ccccc1", "note": "(stereo not shown) [Example 037]", "IC50": "> 20"}
{"smiles": "CC1CN(C)C(=O)c2c1[nH]c(-c1ccnc(NC(=O)C(CC(F)F)c3ccc(F)cc3)c1)c2-c1ccccc1", "note": "(stereo not shown) [Example 039]", "IC50": "> 20"}
{"smiles": "CC1c2[nH]c(-c3ccnc(NC(=O)C(CC(F)F)c4ccc(F)cc4)c3)c(-c3ccccc3)c2C(=O)N(C)C1C", "note": "(stereo not shown) [Example 041]", "IC50": "> 20"}
{"smiles": "CC1(C)CNC(=O)c2c1[nH]c(-c1ccnc(NC(=O)Cc3ccc(F)cc3)c1)c2-c1ccccc1", "note": "[Example 042, N-[4-(7,7-dimethyl-4-oxo-3-phenyl-4,5,6,7-tetrahydro-1H-pyrrolo[3,2-c]pyridin-2-yl)pyridin-2-yl]-2-(4-fluorophenyl)acetamide]", "IC50": 5.6}
{"smiles": "Cn1cc(CC2CC2)c2[nH]c(-c3ccnc(NC(=O)Cc4ccc(F)cc4)c3)c(-c3ccccc3)c2c1=O", "note": "[Example 056, N-{4-[7-(cyclopropylmethyl)-5-methyl-4-oxo-3-phenyl-4,5-dihydro-1H-pyrrolo[3,2-c]pyridin-2-yl]pyridin-2-yl}-2-(4-fluorophenyl)acetamide]", "IC50": "> 20"}
{"smiles": "CC(C(=O)Nc1cc(-c2[nH]c3c(c2-c2ccccc2)C(=O)N(C)CC3CC2CC2)ccn1)c1ccc(F)cc1", "note": "(stereo not shown) [Example 057]", "IC50": "> 20"}
{"smiles": "CN1CC(CC2CC2)c2[nH]c(-c3ccnc(NC(=O)C(CC(F)F)c4ccc(F)cc4)c3)c(-c3ccccc3)c2C1=O", "note": "(stereo not shown) [Example 059]", "IC50": "> 20"}
{"smiles": "CC(C(=O)Nc1cc(-c2[nH]c3c(c2-c2ccc(F)cc2)C(=O)N(C)CC3CC2CC2)ccn1)c1ccc(F)cc1", "note": "(stereo not shown) [Example 062]", "IC50": "> 5.71"}
{"target": "CSNK1A1 (Homo sapiens (Human), UniProt P48729)", "sequence (P48729 whole entry)": "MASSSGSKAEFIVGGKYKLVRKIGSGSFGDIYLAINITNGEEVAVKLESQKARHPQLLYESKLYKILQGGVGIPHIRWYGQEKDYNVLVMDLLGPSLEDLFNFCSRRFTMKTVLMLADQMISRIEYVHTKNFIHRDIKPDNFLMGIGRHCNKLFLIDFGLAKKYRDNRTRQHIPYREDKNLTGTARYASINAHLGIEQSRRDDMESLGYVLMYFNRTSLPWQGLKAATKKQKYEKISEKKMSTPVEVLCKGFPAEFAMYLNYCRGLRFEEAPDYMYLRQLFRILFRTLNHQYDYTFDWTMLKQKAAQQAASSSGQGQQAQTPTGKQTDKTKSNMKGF", "experiment": "CSNK1A1 Assay 2 (ADP-Glo, 1 μM ATP)", "format": "biochemical", "conditions": "median, read-out: CSNK1A1 Assay 2 IC50 [mol/l] (median)", "method": "CSNK1A1-inhibitory activity of compounds of the present invention in presence of 1 μM adenosine-tri-phosphate (ATP) was quantified employing the CSNK1A1 assay as described in the following paragraphs. In essence, the enzyme activity is measured by quantification of the adenosine-di-phosphate (ADP), which is generated as a co-product of the enzyme reaction, via the “ADP-Glo™ Kinase Assay” kit from the company Promega. This detection system works as follows: In a first step the ATP not consumed in the kinase reaction is quantitatively converted to cAMP employing an adenylate cyclase (“ADP-Glo-reagent”), then the adenylate cyclase is stopped and the ADP generated in the kinase reaction converted to ATP which generates in a luciferase-based reaction a glow-luminescence signal (“Kinase Detection Reagent”).\nAs substrate for the kinase reaction the biotinylated peptide biotin-Ahx-KRRRAL-pS-VASLPGL (C-terminus in amide form) was used which can be purchased e.g. from the company Biosyntan (Berlin-Buch, Germany).\nFor the assay 50 nl of a 100 fold concentrated solution of the test compound in DMSO was pipetted into a white 1536-well microtiter plate (Greiner Bio-One, Frickenhausen, Germany), 2 μL of a solution of CSNK1A1 in aqueous assay buffer [50 mM HEPES pH 7.5, 10% (v/v) glycerol, 10 mM MgCl2, 50 mM NaCl, 1 mM dithiothreitol, 0.01% (w/v) bovine serum albumin, 0.01% (v/v) Triton X-100] were added and the mixture was incubated for 15 min at 22° C. to allow pre-binding of the test compounds to the enzyme before the start of the kinase reaction. […] The concentration of CSNK1A1 was adjusted depending of the activity of the enzyme lot and was chosen appropriate to have the assay in the linear range, a typical concentrations are about 0.0375 ng/μL. The reaction was stopped by the addition of 2.5 μL of “ADP-Glo-reagent” (1:1.5 fold diluted with water) and the resulting mixture was incubated at 22° C. for 1 h to convert the ATP not consumed in the kinase reaction completely […]. Subsequently 2.5 μL of the “kinase detection reagent” (1.2 fold more concentrated than recommended by the producer) were added, the resulting mixture was incubated at 22° C. for 1 h and then the luminescence measured with a suitable measurement instrument (e.g. Viewlux™ from Perkin-Elmer). The amount of emitted light was taken as a measure for the amount of ADP generated and thereby for the activity of the CSNK1A1.", "units": {"IC50": "µM"}}
{"smiles": "O=C(Nc1cc(-c2[nH]c3cc[nH]c(=O)c3c2-c2ccccc2)ccn1)C(CC(F)F)c1ccc(F)cc1", "note": "(racemic) [Example 76, 4,4-difluoro-2-(4-fluorophenyl)-N-[4-(4-oxo-3-phenyl-4,5-dihydro-1H-pyrrolo[3,2-c]pyridin-2-yl)pyridin-2-yl]butanamide]", "IC50": 0.002}
